Drawing on ChEMBL document CHEMBL1131944, “Phospholipase A2-like catalytic antibody” (Bioorg Med Chem Lett, 1999), this text covers Km, k cat and Ki for 2 molecules.

One data set deals with 13C-1F6. The experiment in a line: Michaelis-Menten Kinetic rate constant in the hydrolysis by 13C-1F6 was determined. It counts as ADME.
Data set [1] is described as follows: The catalytic rate constant in the hydrolysis by 13C-1F6 was determined by Michaelis-Menten Kinetics. It counts as ADME.
The nature of data set [2]: Compound was tested for the inhibition of antibody-catalyzed hydrolysis.

Structures are written as SMILES.

In the case of `CCCCCCCCCC(=O)OCC(COP(=O)([O-])OCC[N+](C)(C)C)OC(=O)CCCCCCC` (racemic) [ESTER OF PHOSPHOLIPID], the Km in the data set on 13C-1F6 is 71 µM. In addition, the k cat in data set [1] came to 0.00017 s⁻¹.

Molecule `CCCCCCCCCCP(=O)(O)OC(COCCCCCCCCCC(=O)OC)COP(=O)([O-])OCC[N+](C)(C)C` (stereo not drawn) [ESTER OF PHOSPHOLIPID] registered a Ki in data set [2] of 10 µM.

Usually Km stands for the concentration of substrate that gives half-maximal velocity. The Ki is the equilibrium dissociation constant of an inhibitor or competing ligand from its target. The low end stands for tighter binding, the high end for weaker binding.
